# Literature values as cited in patent US20090131395A1, “BIPHENYLAZETIDINONE CHOLESTEROL ABSORPTION INHIBITORS” (MICROBIA, INC., priority 2005, published 2009).
# Molecular target: T1, ileal Na+/bile acid cotransporter (Homo sapiens, UniProt Q12908)
# T1 sequence (Q12908 1-348): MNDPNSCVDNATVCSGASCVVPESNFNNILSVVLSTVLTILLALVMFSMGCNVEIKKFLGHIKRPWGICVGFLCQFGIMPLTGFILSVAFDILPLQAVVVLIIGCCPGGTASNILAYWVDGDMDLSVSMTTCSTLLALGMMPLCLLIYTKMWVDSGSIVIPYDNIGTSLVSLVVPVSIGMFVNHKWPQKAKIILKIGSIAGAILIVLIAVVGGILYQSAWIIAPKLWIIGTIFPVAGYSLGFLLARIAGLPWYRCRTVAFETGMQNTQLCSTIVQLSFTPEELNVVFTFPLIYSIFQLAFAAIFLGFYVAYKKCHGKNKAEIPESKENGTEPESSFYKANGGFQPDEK
# Conditions: in vivo
structure (smiles),measurement,value
"O=C1[C@H](CC[C@H](O)c2ccc(F)cc2)[C@@H](c2ccc(O)cc2)N1c1ccc(F)cc1 [ezetimibe, (3R,4S)-1-(4-fluorophenyl)-3-[(3S)-3-(4-fluorophenyl)-3-hydroxypropyl]-4-(4-hydroxyphenyl)azetidin-2-one]",inhibition of the absorption of taurocholic acid,does not inhibit the absorption of taurocholic acid
